The values below come from PMC11628400 (Nature Cell Biology, 2024).

Experiment [1] has as its target T1, NAT10 (Homo sapiens, UniProt Q9H0A0).
T1 sequence (Q9H0A0 1-1025): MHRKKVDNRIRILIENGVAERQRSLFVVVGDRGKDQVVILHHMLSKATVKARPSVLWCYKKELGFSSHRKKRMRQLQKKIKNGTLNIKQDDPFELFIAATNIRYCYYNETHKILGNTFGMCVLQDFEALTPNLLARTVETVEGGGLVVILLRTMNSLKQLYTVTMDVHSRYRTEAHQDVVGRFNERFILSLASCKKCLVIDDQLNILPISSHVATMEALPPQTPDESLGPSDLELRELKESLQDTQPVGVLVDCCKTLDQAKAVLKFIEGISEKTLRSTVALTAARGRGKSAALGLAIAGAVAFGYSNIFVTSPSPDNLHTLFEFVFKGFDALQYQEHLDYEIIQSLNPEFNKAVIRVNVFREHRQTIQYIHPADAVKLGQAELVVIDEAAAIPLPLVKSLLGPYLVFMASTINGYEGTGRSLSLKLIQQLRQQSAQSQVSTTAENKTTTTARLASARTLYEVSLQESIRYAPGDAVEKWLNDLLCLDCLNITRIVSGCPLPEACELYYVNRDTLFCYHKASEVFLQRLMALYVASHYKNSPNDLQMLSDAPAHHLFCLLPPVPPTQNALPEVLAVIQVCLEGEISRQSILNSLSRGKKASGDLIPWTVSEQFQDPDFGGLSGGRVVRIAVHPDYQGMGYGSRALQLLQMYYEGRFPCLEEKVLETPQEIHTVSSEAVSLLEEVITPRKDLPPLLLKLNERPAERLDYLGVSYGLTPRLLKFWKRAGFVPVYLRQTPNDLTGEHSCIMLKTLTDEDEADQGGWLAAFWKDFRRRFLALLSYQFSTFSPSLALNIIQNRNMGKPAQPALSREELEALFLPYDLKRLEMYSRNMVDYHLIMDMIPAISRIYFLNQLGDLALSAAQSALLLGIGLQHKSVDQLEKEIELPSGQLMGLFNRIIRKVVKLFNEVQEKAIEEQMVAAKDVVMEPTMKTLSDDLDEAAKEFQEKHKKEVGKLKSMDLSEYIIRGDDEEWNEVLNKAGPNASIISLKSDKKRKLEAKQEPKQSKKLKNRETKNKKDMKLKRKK
As to the kind of experiment: DARTS. Format: cell-based.

The target of experiment [2] is T1, NAT10. As to the kind of experiment: DARTS in MOLM13 lysate. Format: cell-based.

`Nc1nc(F)nc2c1ncn2[C@@H]1O[C@H](COP(=O)(O)OP(=O)(O)OP(=O)(O)O)[C@@H](O)[C@@H]1O` [F-ara-ATP, fludarabine triphosphate]: the “DARTS (protection from pronase digestion) in MOLM13 lysate” value at NAT10 [1] was “The binding of fludarabine and F-ara-ATP with NAT10 were confirmed by drug affinity responsive target stability assay (DARTS)”.
In the case of `Nc1nc(F)nc2c1ncn2[C@@H]1O[C@H](COP(=O)(O)O)[C@@H](O)[C@@H]1O` [P-F-ara-A, fludarabine (P-F-ara-A)], the “DARTS (protection from pronase digestion) in MOLM13 lysate” value at NAT10 [1] is “DARTS assays evaluating the efficacy of Remodelin, P-F-ara-A and F-ara-ATP on protecting NAT10 protein against pronase digestion”.
`N#Cc1ccc(-c2csc(NN=C3CCCC3)n2)cc1` [Remodelin]: the “DARTS in MOLM13 lysate; CETSA in MonoMac6 cells” value at NAT10 [2] is listed as “Thermal shift curves of NAT10 from CETSA assays in MonoMac6 pretreated with fludarabine (F-ara-A), Remodelin or dimethylsulfoxide (DMSO)”.
